Consider nine molecules from PubChem BioAssay (NCI).

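Method: 48-hour compound exposure of cells in 96-well plates, five concentrations, linear interpolation of endpoints. Abbreviation: GI50, concentration required for 50% inhibition of growth. The concentration for full growth arrest is given as TGI.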 Bounds are passed on as bounds.

Among the test systems are ACHN renal; UACC-62 melanoma; SF-539 CNS; SN12C renal; SNB-75 CNS; OVCAR-3 ovarian; IGROV1 ovarian; M14 melanoma; NCI-H226 lung; HOP-62 NSCLC.
Holding throughout (assay): inhibition of tumour cell growth, NCI panel, 48 h

Take `CC/C(Cc1ccccc1)=C(\c1ccc(OCCN2CCCCCC2)cc1)c1ccc(OC(=O)NCc2ccccc2)cc1`: the GI50 is 1.49 µM with ACHN renal; 6.38 µM in the assay with UACC-62 melanoma; 2.43 µM in the assay with SF-539 CNS; 1.83 µM in the assay on SN12C renal; 6.09 µM in the assay on SNB-75 CNS; 1.86 µM in the assay on OVCAR-3 ovarian. In addition, the GI50 in the assay on IGROV1 ovarian is 2.31 µM; with M14 melanoma it was 1.06 µM; in the assay with NCI-H226 lung, 8.14 µM; with HOP-62 NSCLC, 7.02 µM. Besides, the TGI in the assay with ACHN renal amounted to 5.34 µM; with UACC-62 melanoma, 13 µM; with SF-539 CNS, 8.84 µM; with SN12C renal it was 6.71 µM; in the assay with SNB-75 CNS, 13.2 µM; in the assay with OVCAR-3 ovarian, 7.13 µM. Further, the TGI with IGROV1 ovarian came to 8.82 µM; in the assay on M14 melanoma, 2.55 µM; in the assay on NCI-H226 lung, 17.5 µM; with HOP-62 NSCLC it was 14.5 µM.
For the molecule `Cc1cccc(C(=O)c2cccc3ccccc23)c1C(=O)O`, the TGI in the assay with ACHN renal, with UACC-62 melanoma, in the assay with SF-539 CNS, with SN12C renal, with SNB-75 CNS and in the assay on OVCAR-3 ovarian was greater than 100 µM in each case. Also, the TGI with IGROV1 ovarian, in the assay on M14 melanoma, in the assay with NCI-H226 lung and in the assay with HOP-62 NSCLC was greater than 100 µM throughout.
For the molecule `C=CC(=O)Nc1ccc(Nc2nccc(-c3ccc(N4CCCC4)c(C#N)c3)n2)cc1`, the GI50 with ACHN renal was 2.45 µM; in the assay on UACC-62 melanoma, greater than 25 µM; with SF-539 CNS it was 6.88 µM; with SN12C renal, 15.8 µM; with SNB-75 CNS it was 3.37 µM; in the assay with OVCAR-3 ovarian, greater than 25 µM. For the same molecule, the GI50 with IGROV1 ovarian was 1.85 µM; in the assay with M14 melanoma, 22.8 µM; with NCI-H226 lung, greater than 25 µM; in the assay on HOP-62 NSCLC, 10.9 µM. The TGI in the assay with ACHN renal, in the assay on UACC-62 melanoma, in the assay with SF-539 CNS, with SN12C renal, in the assay on SNB-75 CNS and with OVCAR-3 ovarian was greater than 25 µM throughout. The TGI in the assay with IGROV1 ovarian, in the assay with M14 melanoma, in the assay with NCI-H226 lung and in the assay with HOP-62 NSCLC was greater than 25 µM in each case.
For `Cc1ccc(C(=O)O/N=C2/CCCC/C2=C\c2ccccc2)cc1`, the TGI in the assay with ACHN renal, in the assay on UACC-62 melanoma, in the assay on SF-539 CNS, in the assay on SN12C renal, in the assay with SNB-75 CNS and in the assay with OVCAR-3 ovarian was greater than 100 µM in each case. The TGI with IGROV1 ovarian, with M14 melanoma, in the assay with NCI-H226 lung and with HOP-62 NSCLC was greater than 100 µM in each case.
On to `CC(=O)N1CCN(C2=Nc3ccccc3CO2)C1=S`, for which the GI50 is greater than 100 µM with ACHN renal; 83 µM in the assay on UACC-62 melanoma; greater than 100 µM in the assay with SF-539 CNS; greater than 100 µM in the assay with SN12C renal; 40.1 µM with SNB-75 CNS; 51.6 µM with OVCAR-3 ovarian. The GI50 in the assay with IGROV1 ovarian was 18.3 µM; in the assay on M14 melanoma, 51.3 µM; in the assay with NCI-H226 lung it was greater than 100 µM; in the assay on HOP-62 NSCLC, greater than 100 µM. The TGI in the assay with ACHN renal, in the assay with UACC-62 melanoma, in the assay on SF-539 CNS, in the assay with SN12C renal, in the assay on SNB-75 CNS and in the assay with OVCAR-3 ovarian was greater than 100 µM throughout. Moreover, the TGI in the assay with IGROV1 ovarian is 58.1 µM; in the assay with M14 melanoma it was greater than 100 µM; in the assay with NCI-H226 lung, greater than 100 µM; with HOP-62 NSCLC it was greater than 100 µM.
For `Cc1c2cnccc2c(C)c2c1c1cc(C3OCCCO3)ccc1n2C`, the GI50 is 0.318 µM with ACHN renal; 0.197 µM with UACC-62 melanoma; 0.272 µM with SF-539 CNS; 0.192 µM in the assay on SN12C renal; 0.257 µM with SNB-75 CNS; 0.419 µM in the assay on OVCAR-3 ovarian. Further, the GI50 with IGROV1 ovarian was 0.337 µM; with M14 melanoma it was 0.317 µM; with NCI-H226 lung, 0.213 µM; in the assay on HOP-62 NSCLC, 0.286 µM. The TGI in the assay on ACHN renal was found to be 2.04 µM; with UACC-62 melanoma, 0.747 µM; in the assay with SF-539 CNS it was 1.32 µM; in the assay with SN12C renal, 1.3 µM; with SNB-75 CNS it was 1.37 µM; in the assay with OVCAR-3 ovarian, 2 µM. Also, the TGI in the assay on IGROV1 ovarian came to 2.37 µM; with M14 melanoma it was 1.16 µM; in the assay with NCI-H226 lung it was 0.962 µM; with HOP-62 NSCLC it was 1.82 µM.
On to `Nc1nc(CCC(=O)Nc2cccc(C(F)(F)F)c2)cc(-c2cccc3ccccc23)n1`, for which the TGI with ACHN renal, with UACC-62 melanoma, in the assay with SF-539 CNS, in the assay with SN12C renal, in the assay on SNB-75 CNS and in the assay with OVCAR-3 ovarian was greater than 100 µM in each case. Also, the TGI in the assay with IGROV1 ovarian, with M14 melanoma, in the assay on NCI-H226 lung and with HOP-62 NSCLC was greater than 100 µM in each case.
Consider `CC(C)(C)OC(=O)NCCNC1=CC(=O)c2nc3ccccc3c3ccnc1c23`, for which the GI50 in the assay on ACHN renal was 21.5 µM; in the assay on UACC-62 melanoma it was 19.6 µM; with SF-539 CNS it was 20.2 µM; with SN12C renal it was 17.7 µM; in the assay on SNB-75 CNS it was 17.8 µM; in the assay with OVCAR-3 ovarian it was 13.8 µM. The GI50 in the assay on IGROV1 ovarian is 24.6 µM; in the assay on M14 melanoma it was 18.5 µM; in the assay on NCI-H226 lung it was 21.1 µM; in the assay on HOP-62 NSCLC, 24.4 µM. Moreover, the TGI in the assay on ACHN renal was 76.8 µM; in the assay with UACC-62 melanoma it was 43.2 µM; in the assay on SF-539 CNS it was 40.5 µM; with SN12C renal, 55.6 µM; in the assay on SNB-75 CNS it was 42.6 µM; in the assay on OVCAR-3 ovarian it was 67 µM. The TGI with IGROV1 ovarian was 77.3 µM; in the assay with M14 melanoma, 61.1 µM; with NCI-H226 lung, 52.8 µM; in the assay with HOP-62 NSCLC, greater than 100 µM.
As to `CC1=CCC[C@@]2(C)C(CC[C@@H]2C(C)/C=C/C(C)C)c2ccc(cc2C(=O)O)C[C@@H](O)CC1` (stereo not given in full), the TGI with ACHN renal is 18.7 µM; in the assay with UACC-62 melanoma it was 23 µM; in the assay on SF-539 CNS, 21 µM; in the assay with SN12C renal, 30.4 µM; in the assay on SNB-75 CNS it was 27.4 µM; in the assay with OVCAR-3 ovarian, 26.8 µM. In addition, the TGI in the assay on IGROV1 ovarian turned out to be 27.9 µM; in the assay on M14 melanoma, 34 µM; with NCI-H226 lung, 32.7 µM; with HOP-62 NSCLC it was 36.5 µM.
